Target: T1, BTK (Homo sapiens, UniProt Q06187)
T1 construct: purchased Upstate 14-552
Assay: In vitro BTK kinase assay: BTK-POLYGAT-LS ASSAY
Format: biochemical
Conditions: ATP 10 uM
Outline: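 BTK phosphorylation of polyGAT (100 nM final) with ATP at 10 μM final, 10 mM Tris-HCl pH 7.5 kinase buffer, quenched by EDTA after 30 min. Potency given as IC50.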

T1 sequence (Q06187 whole entry): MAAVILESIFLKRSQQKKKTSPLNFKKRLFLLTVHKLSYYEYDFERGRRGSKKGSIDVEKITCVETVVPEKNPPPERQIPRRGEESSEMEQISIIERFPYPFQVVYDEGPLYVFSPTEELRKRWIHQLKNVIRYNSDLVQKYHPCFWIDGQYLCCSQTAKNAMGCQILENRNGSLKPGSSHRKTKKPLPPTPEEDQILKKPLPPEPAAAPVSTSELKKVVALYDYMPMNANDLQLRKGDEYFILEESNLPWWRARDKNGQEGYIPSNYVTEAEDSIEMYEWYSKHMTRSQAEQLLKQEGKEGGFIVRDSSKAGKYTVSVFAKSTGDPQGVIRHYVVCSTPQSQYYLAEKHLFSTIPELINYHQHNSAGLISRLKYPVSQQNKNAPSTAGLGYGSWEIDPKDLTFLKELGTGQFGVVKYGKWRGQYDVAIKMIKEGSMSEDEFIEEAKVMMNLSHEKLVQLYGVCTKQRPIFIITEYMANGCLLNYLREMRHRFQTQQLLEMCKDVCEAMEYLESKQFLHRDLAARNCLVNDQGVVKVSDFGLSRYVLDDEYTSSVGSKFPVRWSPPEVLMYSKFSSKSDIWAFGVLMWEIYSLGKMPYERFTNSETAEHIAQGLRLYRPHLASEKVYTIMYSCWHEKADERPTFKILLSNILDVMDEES

`CNC(=O)c1cnc(NC2CCCN(c3ncnc4[nH]ccc34)C2)s1` (stereo not drawn) [Example 344] gave an IC50 greater than 10000 nM.

`O=C(CNc1cccc2cnccc12)NC1CCCN(c2ncnc3[nH]ccc23)C1` (stereo not drawn) [Example 333] was tested, and the IC50 was 1000 to 10000 nM.

Compound `CC[C@@H](Nc1ccccc1C(C)C)C(=O)N[C@@H]1CCCN(c2ncnc3[nH]ccc23)C1` [Example 249] has an IC50 of 100 to 999 nM.

For `O=C(CNC1CCCC1)NC1CCCN(c2ncnc3[nH]ccc23)C1` (stereo not drawn) [Example 72], the IC50 was 1000 to 10000 nM.

With `CC(C)[C@@H](Nc1cc(F)cc(Cl)c1)C(=O)N[C@@H]1CCCN(c2ncnc3[nH]ccc23)C1` [Example 209] the IC50 was less than 100 nM.

Work on `C[C@H](Nc1ccccc1)C(=O)NC1CCCN(c2ncnc3[nH]ccc23)C1` (stereo partly drawn) [Example 102, (2S)—N-(1-(7H-pyrrolo[2,3-d]pyrimidin-4-yl)piperidin-3-yl)-2-(phenylamino)propanamide] yielded an IC50 greater than 10000 nM.

For `CCC[C@@H](Nc1cc(Cl)cc(Cl)c1)C(=O)N[C@@H]1CCCN(c2ncnc3[nH]ccc23)C1` [Example 178], the IC50 was less than 100 nM.

For `O=C(N[C@@H]1CCCN(c2ncnc3[nH]ccc23)C1)[C@H](Nc1ccccc1)C1CCCCC1` [Example 109, (R)—N—((R)-1-(7H-pyrrolo[2,3-d]pyrimidin-4-yl)piperidin-3-yl)-2-cyclohexyl-2-(phenylamino)acetamide], the IC50 was 1000 to 10000 nM.

`CNS(=O)(=O)c1ccccc1NCC(=O)N[C@@H]1CCCN(c2ncnc3[nH]ccc23)C1` [Example 457] gave an IC50 of 1000 to 10000 nM.

`O=C([C@H](Nc1cc(F)cc(Cl)c1)C1CC1)N1CCCCC12CCCN(c1ncnc3[nH]ncc13)C2` (stereo partly drawn) [Example 373] was tested, and the IC50 was 1000 to 10000 nM.

With `O=C(CNc1cccc(-c2cn3ccccc3n2)c1)N[C@@H]1CCCN(c2ncnc3[nH]ccc23)C1` [Example 304] the IC50 was 100 to 999 nM.

`CC(=O)Nc1cccc(NCC(=O)NC2CCCN(c3ncnc4[nH]ccc34)C2)c1` (stereo not drawn) [Example 358] was tested, and the IC50 was greater than 10000 nM.

For `O=C(N[C@@H](C(=O)N[C@@H]1CCCN(c2ncnc3[nH]ccc23)C1)C1CC1)c1ccccc1O` [Example 230], the IC50 was 100 to 999 nM.

In the case of `O=C(CNc1cccc(C(F)(F)F)n1)NC1CCCN(c2ncnc3[nH]ccc23)C1` (stereo not drawn) [Example 334], the IC50 is reported as 1000 to 10000 nM.

Compound `CCN(C)S(=O)(=O)c1ccccc1NCC(=O)N[C@@H]1CCCN(c2ncnc3[nH]ccc23)C1` [Example 207] has an IC50 of less than 100 nM.

Work on `O=C(CNc1c(F)cc(F)cc1F)N[C@@H]1CCCN(c2ncnc3[nH]ccc23)C1` [Example 438] yielded an IC50 of 1000 to 10000 nM.

`COc1ccc(Cl)cc1NCC(=O)N[C@@H]1CCCN(c2ncnc3[nH]ccc23)C1` [Example 312] gave an IC50 of 100 to 999 nM.

`O=C(CNc1ccccn1)NC1CCCN(c2ncnc3[nH]ccc23)C1` (stereo not drawn) [Example 352] gave an IC50 of 1000 to 10000 nM.

`O=C(N[C@@H]1CCCN(c2ncnc3[nH]ccc23)C1)[C@@H]1CCc2ccccc2N1` [Example 15, (S)—N—((R)-1-(7H-pyrrolo[2,3-d]pyrimidin-4-yl)piperidin-3-yl)-1,2,3,4-tetrahydroquinoline-2-carboxamide] showed an IC50 of 1000 to 10000 nM.

`O=C(O)CC[C@@H](Nc1ccccc1)C(=O)N[C@@H]1CCCN(c2ncnc3[nH]ccc23)C1` [Example 425] was tested, and the IC50 was 1000 to 10000 nM.

`CC[C@@H](Nc1cccc(Cl)c1)C(=O)N[C@@H]1CCCN(c2ncnc3[nH]ncc23)C1` [Example 131, (R)—N—((R)-1-(1H-pyrazolo[3,4-d]pyrimidin-4-yl)piperidin-3-yl)-2-(3-chlorophenylamino)butanamide] showed an IC50 of less than 100 nM.

In the case of `Cc1cc(NCC(=O)NC2CCCN(c3ncnc4[nH]ccc34)C2)on1` (stereo not drawn) [Example 350], the IC50 is reported as greater than 10000 nM.

Work on `O=C(CNc1ccc(F)cc1)NC1CCCN(c2ncnc3[nH]ccc23)C1` (stereo not drawn) [Example 33, (N-(1-(7H-pyrrolo[2,3-d]pyrimidin-4-yl)piperidin-3-yl)-2-(4-fluorophenylamino)acetamide)] yielded an IC50 of 1000 to 10000 nM.

`C[C@@H](Nc1cc(F)cc(Cl)c1)C(=O)N[C@@H]1CCCN(c2ncnc3[nH]ncc23)C1` [Example 185] was tested, and the IC50 was less than 100 nM.

Compound `O=C(CNc1ccccc1S(=O)(=O)N1CCC(F)(F)CC1)N[C@@H]1CCCN(c2ncnc3[nH]ncc23)C1` [Example 176] has an IC50 of less than 100 nM.

`Cc1ccc(NCC(=O)N[C@@H]2CCCN(c3ncnc4[nH]ccc34)C2)cc1` [Example 426] gave an IC50 of 100 to 999 nM.

With `CC(C)CN(CC(C)C)S(=O)(=O)c1ccccc1NCC(=O)N[C@@H]1CCCN(c2ncnc3[nH]ccc23)C1` [Example 179] the IC50 was less than 100 nM.

`CCc1cccc(NCC(=O)N[C@@H]2CCCN(c3ncnc4[nH]ccc34)C2)c1` [Example 262] gave an IC50 of less than 100 nM.

For `O=C(N[C@@H]1CCCN(c2ncnc3[nH]cc(F)c23)C1)[C@H](Nc1cc(Cl)cc(Cl)c1)C1CC1` [Example 392], the IC50 was 1000 to 10000 nM.

`O=C(N[C@@H]1CCCN(c2ncnc3[nH]ccc23)C1)[C@@H](CC1CC1)Nc1cc(F)cc(Cl)c1` [Example 393] was tested, and the IC50 was 1000 to 10000 nM.

In the case of `O=C(CNc1cc(Cl)ccc1Cl)N[C@@H]1CCCN(c2ncnc3[nH]ccc23)C1` [Example 319], the IC50 is reported as 100 to 999 nM.

Compound `Cc1c(F)cccc1NCC(=O)N[C@@H]1CCCN(c2ncnc3[nH]ccc23)C1` [Example 267] has an IC50 of 100 to 999 nM.

`O=C(CNc1cccc(C(F)(F)F)c1F)NC1CCCN(c2ncnc3[nH]ccc23)C1` (stereo not drawn) [Example 70, (N-(1-(7H-pyrrolo[2,3-d]pyrimidin-4-yl)piperidin-3-yl)-2-(2-fluoro-3-(trifluoromethyl)phenylamino)acetamide)] showed an IC50 of 100 to 999 nM.

`O=C(CNc1cccc(-n2cncn2)c1)N[C@@H]1CCCN(c2ncnc3[nH]ccc23)C1` [Example 395] was tested, and the IC50 was 1000 to 10000 nM.

`CN(C)S(=O)(=O)c1ccccc1NCC(=O)N[C@@H]1CCCN(c2ncnc3[nH]ccc23)C1` [Example 288] gave an IC50 of 100 to 999 nM.

`CN(C(C)(C)C)S(=O)(=O)c1ccccc1NCC(=O)N[C@@H]1CCCN(c2ncnc3[nH]ncc23)C1` [Example 368] was tested, and the IC50 was 100 to 999 nM.

`CC(C)(C)[C@@H](Nc1cc(F)cc(Cl)c1)C(=O)N[C@@H]1CCCN(c2ncnc3[nH]ncc23)C1` [Example 200] gave an IC50 of less than 100 nM.

For `COc1ccccc1NCC(=O)NC1CCCN(c2ncnc3[nH]ccc23)C1` (stereo not drawn) [Example 37, (N-(1-(7H-pyrrolo[2,3-d]pyrimidin-4-yl)piperidin-3-yl)-2-(2-methoxyphenylamino)acetamide)], the IC50 was 100 to 999 nM.

`O=C(CNC(=O)c1cccc2ccccc12)NC1CCCN(c2ncnc3[nH]ccc23)C1` (stereo not drawn) [Example 97, (N-(2-(1-(7H-pyrrolo[2,3-d]pyrimidin-4-yl)piperidin-3-ylamino)-2-oxoethyl)-1-naphthamide)] was tested, and the IC50 was 100 to 999 nM.

`O=C(CNc1ccc(F)cc1F)N[C@@H]1CCCN(c2ncnc3[nH]ccc23)C1` [Example 454] showed an IC50 of 1000 to 10000 nM.

For `C[C@@H](O)[C@@H](Nc1cc(Cl)cc(Cl)c1)C(=O)N[C@@H]1CCCN(c2ncnc3[nH]ncc23)C1` [Example 164], the IC50 was less than 100 nM.

Compound `O=C(CNc1ccccc1-n1cccn1)N[C@@H]1CCCN(c2ncnc3[nH]ccc23)C1` [Example 381] has an IC50 of 1000 to 10000 nM.

Compound `CC(C)Nc1cc(N2CCC[C@@H](NC(=O)CNc3cc(Cl)cc(Cl)c3)C2)ncn1` [Example 142, (R)-2-(3,5-dichlorophenylamino)-N-(1-(6-(isopropylamino)pyrimidin-4-yl)piperidin-3-yl)acetamide] has an IC50 of 1000 to 10000 nM.

With `O=C(CNc1cccc2ccncc12)NC1CCCN(c2ncnc3[nH]ccc23)C1` (stereo not drawn) [Example 329] the IC50 was greater than 10000 nM.

For `Cc1ccc(C)c(NCC(=O)N[C@@H]2CCCN(c3ncnc4[nH]ccc34)C2)c1` [Example 427], the IC50 was 1000 to 10000 nM.

`N#Cc1c(N)ncnc1N1CCC[C@@H](NC(=O)[C@H](Nc2cc(F)cc(Cl)c2)C2CC2)C1` [Example 134, (R)—N—((R)-1-(6-amino-5-cyanopyrimidin-4-yl)piperidin-3-yl)-2-(3-chloro-5-fluorophenylamino)-2-cyclopropylacetamide] showed an IC50 of 1000 to 10000 nM.

With `CN(C)C(=O)c1cccc(NCC(=O)NC2CCCN(c3ncnc4[nH]ccc34)C2)c1` (stereo not drawn) [Example 43, (3-(2-(1-(7H-pyrrolo[2,3-d]pyrimidin-4-yl)piperidin-3-ylamino)-2-oxoethylamino)-N,N-dimethylbenzamide)] the IC50 was 1000 to 10000 nM.

Work on `O=C(CNc1cccc(-c2cc[nH]n2)c1)N[C@@H]1CCCN(c2ncnc3[nH]ccc23)C1` [Example 396] yielded an IC50 of 1000 to 10000 nM.

Compound `O=C(CNC(=O)c1cccc(Cl)c1)NC1CCCN(c2ncnc3[nH]ccc23)C1` (stereo not drawn) [Example 93, (N-(2-(1-(7H-pyrrolo[2,3-d]pyrimidin-4-yl)piperidin-3-ylamino)-2-oxoethyl)-3-chlorobenzamide)] has an IC50 of 1000 to 10000 nM.

`CCCN(CC)S(=O)(=O)c1ccccc1NCC(=O)N[C@@H]1CCCN(c2ncnc3[nH]ncc23)C1` [Example 172] gave an IC50 of less than 100 nM.

`O=C(CNc1ccccc1S(=O)(=O)N1CC2CCCC2C1)N[C@@H]1CCCN(c2ncnc3[nH]ncc23)C1` (stereo partly drawn) [Example 227] was tested, and the IC50 was less than 100 nM.

Work on `O=C(CNc1cccc2[nH]ncc12)NC1CCCN(c2ncnc3[nH]ccc23)C1` (stereo not drawn) [Example 76, (2-(1H-indazol-4-ylamino)-N-(1-(7H-pyrrolo[2,3-d]pyrimidin-4-yl)piperidin-3-yl)acetamide)] yielded an IC50 of 100 to 999 nM.

With `Cc1cccc(NC(C(=O)NC2CCCN(c3ncnc4[nH]ccc34)C2)C2CCCC2)c1` (stereo not drawn) [Example 461] the IC50 was 1000 to 10000 nM.

With `Nc1cc(N2CCC[C@@H](NC(=O)[C@H](Nc3cc(F)cc(Cl)c3)C3CC3)C2)ncn1` [Example 314] the IC50 was 100 to 999 nM.

In the case of `O=C(N[C@@H]1CCCN(c2ncnc3[nH]cc(F)c23)C1)[C@H](Nc1cc(F)cc(Cl)c1)C1CC1` [Example 138, (R)-2-(3-chloro-5-fluorophenylamino)-2-cyclopropyl-N—((R)-1-(5-fluoro-7H-pyrrolo[2,3-d]pyrimidin-4-yl)piperidin-3-yl)acetamide], the IC50 is reported as 100 to 999 nM.

In the case of `O=C(CNc1ccccc1Oc1ccccc1)N[C@@H]1CCCN(c2ncnc3[nH]ncc23)C1` [Example 204], the IC50 is reported as less than 100 nM.

For `N#Cc1ccc(NCC(=O)NC2CCCN(c3ncnc4[nH]ccc34)C2)cc1C(F)(F)F` (stereo not drawn) [Example 73, (N-(1-(7H-pyrrolo[2,3-d]pyrimidin-4-yl)piperidin-3-yl)-2-(4-cyano-3-(trifluoromethyl)phenylamino)acetamide)], the IC50 was greater than 10000 nM.

`O=C(CNc1cccc(N2CCCCC2)c1)N[C@@H]1CCCN(c2ncnc3[nH]ccc23)C1` [Example 429] gave an IC50 of 1000 to 10000 nM.

Work on `COc1cccc(C)c1NCC(=O)N[C@@H]1CCCN(c2ncnc3[nH]ccc23)C1` [Example 452] yielded an IC50 of 1000 to 10000 nM.

`O=C(NC1CCCN(c2ncnc3[nH]ccc23)C1)C1NCc2ccccc21` (stereo not drawn) [Example 361] showed an IC50 greater than 10000 nM.
